Consider two compounds from patent US9242998B2, “Tetracyclic heterocycle compounds and methods of use thereof for the treatment of hepatitis C” (priority 2013, dated 2016).

One may read the IC50 as the concentration at which inhibition is half-maximal.

The structures appear in SMILES notation.

The subject of one assay is HCV genotype 1a replicon. Description: HCV replicon assay, genotype 1a (cell ELISA for replicon-encoded NS3/4A). It counts as cell-based. The following applies: Hepatitis C virus, 96 h, read-out: 1a IC50. The procedure:
(§1) Measurement of inhibition by compounds was performed using the HCV replicon system. Several different replicons encoding different HCV genotypes or mutations were used. In addition, potency measurements were made using different formats of the replicon assay, including different ways of measurements and different plating formats. See Jan M. Vrolijk et al., A replicons-based bioassay for the measurement of interferons in patients with chronic hepatitis C, 110 J. V[…] 201 (2003); Steven S. Carroll et al., Inhibition of Hepatitis C Virus RNA Replication by 2′-Modified Nucleoside Analogs, 278(14) J. BIOLOGICAL CHEMISTRY 11979 (2003). However, the underlying principles are common to all of these determinations, and are outlined below.
(§2) Stable neomycin phosphotransferase encoding replicons-harboring cell lines were used, so all cell lines were maintained under G418 selection prior to the assay. Potency was determined using a cell ELISA assay with an antibody to the replicons encoded NS3/4a protease. See Caterina Trozzi et al., In Vitro Selection and Characterization of Hepatitis C Virus Serine Protease Variants Resistant to an Active-Site Peptide Inhibitor, 77(6) J. Virol. 3669 (2003). To initiate an assay, replicon cells were plated in the presence of a dilution series of test compound in the absence of G418. Typically, the assays were performed in a 96-well plate formate for manual operation, or a 384-well plate format for automated assay. Replicon cells and compound were incubated for 96 hours. At the end of the assay, cells were washed free of media and compound, and the cells were then lysed. RNA was quantified indirectly through detection of replicon-encoded NS3/4A protein levels, through an ELISA-based assay with an antibody specific for NS3/4A. IC50 determinations were calculated as a percentage of a DMSO control by fitting the data to a four-parameter fit function and the data obtained is provided in the table below.
(§3) Data for selected compounds of the present invention was obtained for genotypes 1a and 1b using this method and is provided in the table below: […]
In general terms: Replicon systems follow genome replication, usually without infectious particles.

For the next assay, the system named is HCV genotype 1b replicon. Description: HCV replicon assay, genotype 1b (cell ELISA for replicon-encoded NS3/4A). Format: cell-based. The following applies: Hepatitis C virus, 96 h, read-out: 1b IC50. How it is done: as §1, §2, §3

Take `CNC(=O)c1oc2cc(N(C)S(C)(=O)=O)c(-c3ccc4c(n3)-c3cc5c(F)cccc5n3CO4)cc2c1C(=O)NC` [Compound 54, 5-(11-fluoro-6H-pyrido[2′,3′:5,6][1,3]oxazino[3,4-a]indol-2-yl)-N2,N3-dimethyl-6-(N-methylmethylsulfonamido)benzofuran-2,3-dicarboxamide]: the figures for the IC50 in the assay on HCV genotype 1a replicon and in the assay on HCV genotype 1b replicon were 4.3 nM and 7.1 nM, respectively.

In the case of `CNC(=O)c1c(C2CC2)oc2cc(N(C)S(C)(=O)=O)c(-c3ccc4c(n3)-c3cc5c(F)cccc5n3CO4)cc12` [Compound 2], the IC50 was found to be 13 nM in the assay with HCV genotype 1a replicon and 12 nM in the assay on HCV genotype 1b replicon.
